Results taken from patent US10758607B2, “Respiratory syncytial virus having cleavage-resistant G protein and related materials and methods” (The Research Institute at Nationwide Children's Hospital, priority 2015, dated 2020).

How the values were obtained:
[1] = tested on: G protein cleavage in RSV virions; experiment: Virion G protein of rgRSV-L208A grown in Vero cells (immunoblot); type: cell-based; settings: purified through sucrose
Protocol: To test the infectivity of Vero-derived virus with an uncleavable G in HAE cultures, the L208A mutation was incorporated into the whole virus. rgRSV and rgRSV-L208A were grown in HeLa or Vero cells, purified by sucrose gradient, and their virion G proteins assessed by immunoblot (FIG. 7A). For FIG. 7A, the L208A mutant G protein gene was inserted into the full-length RSV genome cDNA, in place of the wt G protein. The mutant RSV was rescued and grown in HeLa or Vero cells, purified by centrifugation through a 35% sucrose cushion, and G protein assessed as before. […] The viruses were titrated on HeLa cells and equivalent infectious units used to inoculate HeLa or HAE cultures. […] For FIG. 7B, virus was titrated on HeLa cells and equivalent infectious units were used to inoculate HAE and HeLa in parallel. Virus-infected (green) cells were counted at 24 (HeLa) or 48 (HAE) hpi.
The full-length RSV cDNA construct, RW30 (Kwilas et al., J Virol (2010) 84:7770-7781), was used as the backbone for a modification of the G protein gene at amino acid 208 from a […] to an alanine. RW30 was digested with restriction enzymes EcoICRI and SacII (Thermo Fisher Scientific Waltham, Mass.) to remove the G gene, and the remaining vector was isolated from an 0.5% agarose gel following electrophoresis and eluted from the gel fragment with the Qiaex II gel elution kit (Qiagen, Valencia, Calif.). […]

[2] = tested on: RSV G protein cleavage in Vero cells; experiment: Cleavage of mutant G proteins transiently expressed in Vero cells (immunoblot); type: cell-based
Protocol: The G gene in the region of amino acid 210 was modified by deleting stretches of amino acids in this region (200-211, 204-213, 206-215, 208-217, or 209-213). […] Most of the mutants almost completely ablate cleavage. They all share amino acids 208-211. However, A206-210 and A206-215, both of which bring together amino acids that can also serve as a cathepsin L cleavage site. For FIG. 6B, the mutated G protein genes were transiently expressed in Vero cells. 24 h post-transfection cells were harvested, lysed and proteins were separated by SDS-PAGE, blotted and probed with mAb to the G protein.
To identify which amino acids are important for cleavage, individual amino acids in and around this region were changed to alanine. These mutant G proteins were transiently expressed in Vero cells and assessed by immunoblot (FIG. 6C). For FIG. 6C, the mutated G protein genes were transiently expressed in Vero cells. 24 hours post-transfection cells were harvested, lysed and proteins were separated by SDS-PAGE, blotted and probed with mAb to the G protein.
The strain A2 G protein plasmid was mutagenized using synthetic double strand gBlock DNA (Integrated DNA Technologies). Van91I (Thermo Fisher) and Xho I (New England Biolabs) were used to digest plasmid and gBlock. Doubly-digested plasmid was isolated by agarose gel electrophoresis. Digested gBlock and eluted plasmid DNAs were ligated with T4 DNA ligase (Promega, Madison, Wis.), and transformed into One Shot MachI-T1 chemically competent bacteria (Life Technologies). Plasmids were extracted using HiSpeed or Plasmid Plus Maxi kits (Qiagen).
Wild type G or frG proteins were expressed in HeLa or Vero cells following plasmid transfection with FuGene HD (Promega) or Lipofectamine LTX (Life Technologies), respectively, in medium containing 2% FBS. In frG experiments, medium was collected and concentrated using Ultracel-10 K centrifugal filters (EMD Millipore, Billerica, Mass.). For other transfection experiments, Vero cells were transfected using Lipofectamine 3000 (Life Technologies) in medium containing 10% FBS. For all transfection experiments, cells were lysed and protein quantified by BCA assay. Equivalent HeLa or Vero cell lysate protein and equivalent volumes of concentrated proteins from the medium were analyzed by immunoblotting.

**Q.** “L208: RSV strain A2 G protein with alanine substitution for L208” was tested. Which “virion G protein cleavage” value [1] did it give?
**A.** prevention of G protein cleavage

**Q.** And the “efficiency at inhibiting cleavage (rank among alanine substitutions)” value [2]?
**A.** most efficient

**Q.** And the “resistance to cleavage of alanine substitution G protein mutants” value ([2]; 24 hours post-transfection)?
**A.** partially to nearly completely resistant to cleavage
